Source: ChEMBL document CHEMBL4028802, “DILIrank: the largest reference drug list ranked by the risk for developing drug-induced liver injury in humans” (Drug Discov Today, 2016)
Non-standard residues stand in square brackets, D forms with d. Residues, ends and D or L forms follow the SMILES beside them. d(hArg(Et2)) = CCN=C(NCC)NCCCC[C@@H](N)C(=O)O; hArg(Et2) = CCN=C(NCC)NCCCC[C@H](N)C(=O)O; dPhe(4-Cl) = N[C@H](Cc1ccc(Cl)cc1)C(=O)O; d2Nal = N[C@H](Cc1ccc2ccccc2c1)C(=O)O; d3Pal = N[C@H](Cc1cccnc1)C(=O)O

Legend:
[1] = organism: Homo sapiens; experiment: Liver toxicity in human assessed as induction of drug-induced liver injury by measuring severity class index
[2] = organism: Homo sapiens; experiment: Liver toxicity in human assessed as induction of drug-induced liver injury by measuring verified drug-induced liver injury concern status
Wherever DILI severity class is given: key of the grades not given here.

COc1ccc2c3c1O[C@H]1C[C@@H](O)C=C[C@@]31CCN(C)C2 [GALANTAMINE]
DILI_severity_class [1]: 3 | DILI_Concern [2]: Ambiguous-Dili-Concern

Nc1nc(O)c2ncn(COC(CO)CO)c2n1 [GANCICLOVIR]
DILI_severity_class [1]: 7 | DILI_Concern [2]: Ambiguous-Dili-Concern

CC(=O)O.CC(=O)O.CC/N=C(\NCC)NCCCC[C@H](NC(=O)[C@H](CC(C)C)NC(=O)[C@@H](CCCCN/C(=N/CC)NCC)NC(=O)[C@H](Cc1ccc(O)cc1)NC(=O)[C@H](CO)NC(=O)[C@@H](Cc1cccnc1)NC(=O)[C@@H](Cc1ccc(Cl)cc1)NC(=O)[C@@H](Cc1ccc2ccccc2c1)NC(C)=O)C(=O)N1CCC[C@H]1C(=O)N[C@H](C)C(N)=O [GANIRELIX ACETATE] (Ac-[d2Nal][dPhe(4-Cl)][d3Pal]SY[d(hArg(Et2))]L[hArg(Et2)]P[dA]-NH2)
DILI_severity_class [1]: 0 | DILI_Concern [2]: No-Dili-Concern

COc1cc2ncnc(Nc3ccc(F)c(Cl)c3)c2cc1OCCCN1CCOCC1 [GEFITINIB]
DILI_severity_class [1]: 4 | DILI_Concern [2]: Most-Dili-Concern

Nc1ccn([C@@H]2O[C@H](CO)[C@@H](O)C2(F)F)c(=O)n1 [GEMCITABINE]
DILI_severity_class [1]: 8 | DILI_Concern [2]: Most-Dili-Concern

Cc1ccc(C)c(OCCCC(C)(C)C(=O)O)c1 [GEMFIBROZIL]
DILI_severity_class [1]: 4 | DILI_Concern [2]: Most-Dili-Concern

CO/N=C1\CN(c2nc3c(cc2F)c(=O)c(C(=O)O)cn3C2CC2)CC1CN (centres undefined) [GEMIFLOXACIN]
DILI_severity_class [1]: 3 | DILI_Concern [2]: Less-Dili-Concern

O=C(OCC(O)CO)c1ccccc1Nc1ccnc2cc(Cl)ccc12 (centres undefined) [GLAFENINE]
DILI_severity_class [1]: 8 | DILI_Concern [2]: Most-Dili-Concern

CCC1=C(C)CN(C(=O)NCCc2ccc(S(=O)(=O)NC(=O)N[C@H]3CC[C@H](C)CC3)cc2)C1=O [GLIMEPIRIDE]
DILI_severity_class [1]: 7 | DILI_Concern [2]: Less-Dili-Concern

Cc1cnc(C(=O)NCCc2ccc(S(=O)(=O)NC(=O)NC3CCCCC3)cc2)cn1 [GLIPIZIDE]
DILI_severity_class [1]: 3 | DILI_Concern [2]: Less-Dili-Concern

NC(=O)CC[C@H](N)C(=O)O [GLUTAMINE]
DILI_severity_class [1]: 3 | DILI_Concern [2]: Ambiguous-Dili-Concern

COc1ccc(Cl)cc1C(=O)NCCc1ccc(S(=O)(=O)NC(=O)NC2CCCCC2)cc1 [GLYBURIDE]
DILI_severity_class [1]: 3 | DILI_Concern [2]: Less-Dili-Concern

C[N+]1(C)CCC(OC(=O)C(O)(c2ccccc2)C2CCCC2)C1 (centres undefined) [GLYCOPYRRONIUM]
DILI_severity_class [1]: 0 | DILI_Concern [2]: No-Dili-Concern

CC(C)C[C@H](NC(=O)[C@@H](COC(C)(C)C)NC(=O)[C@H](Cc1ccc(O)cc1)NC(=O)[C@H](CO)NC(=O)[C@H](Cc1c[nH]c2ccccc12)NC(=O)[C@H](Cc1cnc[nH]1)NC(=O)[C@@H]1CCC(=O)N1)C(=O)N[C@@H](CCCNC(=N)N)C(=O)N1CCC[C@H]1C(=O)NNC(N)=O [GOSERELIN]
DILI_severity_class [1]: 3 | DILI_Concern [2]: Ambiguous-Dili-Concern

CN1C2CCCC1CC(NC(=O)c1nn(C)c3ccccc13)C2 (centres undefined) [GRANISETRON]
DILI_severity_class [1]: 3 | DILI_Concern [2]: Ambiguous-Dili-Concern

COC1=CC(=O)C[C@@H](C)[C@]12Oc1c(Cl)c(OC)cc(OC)c1C2=O [GRISEOFULVIN]
DILI_severity_class [1]: 8 | DILI_Concern [2]: Most-Dili-Concern

COc1ccccc1OCC(O)CO (centres undefined) [GUAIFENESIN]
DILI_severity_class [1]: 0 | DILI_Concern [2]: No-Dili-Concern

N=C(N)NCCN1CCCCCCC1 [GUANETHIDINE]
DILI_severity_class [1]: 0 | DILI_Concern [2]: No-Dili-Concern

N=C(N)NC(=O)Cc1c(Cl)cccc1Cl [GUANFACINE]
DILI_severity_class [1]: 3 | DILI_Concern [2]: Ambiguous-Dili-Concern

N=C(N)N [GUANIDINE]
DILI_severity_class [1]: 3 | DILI_Concern [2]: Ambiguous-Dili-Concern

CCCCCCCCCC(=O)OC1(c2ccc(Cl)cc2)CCN(CCCC(=O)c2ccc(F)cc2)CC1 [HALOPERIDOL DECANOATE]
DILI_severity_class [1]: 3 | DILI_Concern [2]: Ambiguous-Dili-Concern

O=C(CCCN1CCC(O)(c2ccc(Cl)cc2)CC1)c1ccc(F)cc1 [HALOPERIDOL]
DILI_severity_class [1]: 5 | DILI_Concern [2]: Less-Dili-Concern

NCCc1c[nH]cn1.O=P(O)(O)O.O=P(O)(O)O [HISTAMINE PHOSPHATE]
DILI_severity_class [1]: 0 | DILI_Concern [2]: No-Dili-Concern

CC(=O)O.CCNC(=O)[C@@H]1CCCN1C(=O)[C@H](CCCNC(=N)N)NC(=O)[C@H](CC(C)C)NC(=O)[C@@H](Cc1cn(Cc2ccccc2)cn1)NC(=O)[C@H](Cc1ccc(O)cc1)NC(=O)[C@H](CO)NC(=O)[C@H](Cc1c[nH]c2ccccc12)NC(=O)[C@H](Cc1cnc[nH]1)NC(=O)[C@@H]1CCC(=O)N1 [HISTRELIN ACETATE]
DILI_severity_class [1]: 3 | DILI_Concern [2]: Ambiguous-Dili-Concern

NNc1nncc2ccccc12 [HYDRALAZINE]
DILI_severity_class [1]: 3 | DILI_Concern [2]: Less-Dili-Concern

NS(=O)(=O)c1cc2c(cc1Cl)NCNS2(=O)=O [HYDROCHLOROTHIAZIDE]
DILI_severity_class [1]: 2 | DILI_Concern [2]: Less-Dili-Concern

C[C@]12CCC(=O)C=C1CC[C@@H]1[C@@H]2[C@@H](O)C[C@@]2(C)[C@H]1CC[C@]2(O)C(=O)CO [HYDROCORTISONE]
DILI_severity_class [1]: 0 | DILI_Concern [2]: No-Dili-Concern

NS(=O)(=O)c1cc2c(cc1C(F)(F)F)NCNS2(=O)=O [HYDROFLUMETHIAZIDE]
DILI_severity_class [1]: 2 | DILI_Concern [2]: Ambiguous-Dili-Concern

CN1CC[C@]23c4c5ccc(O)c4O[C@H]2C(=O)CC[C@H]3[C@H]1C5 [HYDROMORPHONE]
DILI_severity_class [1]: 3 | DILI_Concern [2]: Ambiguous-Dili-Concern

CCN(CCO)CCCC(C)Nc1ccnc2cc(Cl)ccc12 (centres undefined) [HYDROXYCHLOROQUINE]
DILI_severity_class [1]: 7 | DILI_Concern [2]: Less-Dili-Concern

CCCCCC(=O)O[C@]1(C(C)=O)CC[C@H]2[C@@H]3CCC4=CC(=O)CC[C@]4(C)[C@H]3CC[C@@]21C [HYDROXYPROGESTERONE CAPROATE]
DILI_severity_class [1]: 2 | DILI_Concern [2]: Ambiguous-Dili-Concern

NC(=O)NO [HYDROXYUREA]
DILI_severity_class [1]: 8 | DILI_Concern [2]: Most-Dili-Concern

OCCOCCN1CCN(C(c2ccccc2)c2ccc(Cl)cc2)CC1 (centres undefined) [HYDROXYZINE]
DILI_severity_class [1]: 0 | DILI_Concern [2]: No-Dili-Concern

CCCCCN(C)CCC(O)(P(=O)(O)O)P(=O)(O)O [IBANDRONIC ACID]
DILI_severity_class [1]: 0 | DILI_Concern [2]: No-Dili-Concern

CC(C)Cc1ccc(CC(=O)O)cc1 [IBUFENAC]
DILI_severity_class [1]: 8 | DILI_Concern [2]: Most-Dili-Concern

CC(C)Cc1ccc(C(C)C(=O)O)cc1 (centres undefined) [IBUPROFEN]
DILI_severity_class [1]: 3 | DILI_Concern [2]: Less-Dili-Concern

CCCCCCCN(CC)CCCC(O)c1ccc(NS(C)(=O)=O)cc1 (centres undefined) [IBUTILIDE]
DILI_severity_class [1]: 0 | DILI_Concern [2]: No-Dili-Concern

CC(=O)[C@]1(O)Cc2c(O)c3c(c(O)c2[C@@H](O[C@H]2C[C@H](N)[C@H](O)[C@H](C)O2)C1)C(=O)c1ccccc1C3=O [IDARUBICIN]
DILI_severity_class [1]: 3 | DILI_Concern [2]: Ambiguous-Dili-Concern

O=P1(NCCCl)OCCCN1CCCl (centres undefined) [IFOSFAMIDE]
DILI_severity_class [1]: 4 | DILI_Concern [2]: Less-Dili-Concern

COc1cc(C(C)=O)ccc1OCCCN1CCC(c2noc3cc(F)ccc23)CC1 [ILOPERIDONE]
DILI_severity_class [1]: 2 | DILI_Concern [2]: Ambiguous-Dili-Concern

Cc1ccc(NC(=O)c2ccc(CN3CCN(C)CC3)cc2)cc1Nc1nccc(-c2cccnc2)n1 [IMATINIB]
DILI_severity_class [1]: 8 | DILI_Concern [2]: Most-Dili-Concern

Nc1cc(-c2ccncc2)c[nH]c1=O [INAMRINONE]
DILI_severity_class [1]: 5 | DILI_Concern [2]: Ambiguous-Dili-Concern

CC1Cc2ccccc2N1NC(=O)c1ccc(Cl)c(S(N)(=O)=O)c1 (centres undefined) [INDAPAMIDE]
DILI_severity_class [1]: 5 | DILI_Concern [2]: Ambiguous-Dili-Concern

CC1(C)C(/C=C/C=C/C=C/C=C2/N(CCCCS(=O)(=O)[O-])c3ccc4ccccc4c3C2(C)C)=[N+](CCCCS(=O)(=O)[O-])c2ccc3ccccc3c21.[Na+] [INDOCYANINE GREEN]
DILI_severity_class [1]: 0 | DILI_Concern [2]: No-Dili-Concern

COc1ccc2c(c1)c(CC(=O)O)c(C)n2C(=O)c1ccc(Cl)cc1 [INDOMETHACIN]
DILI_severity_class [1]: 8 | DILI_Concern [2]: Most-Dili-Concern

CNC[C@H](O)[C@@H](O)[C@H](O)[C@H](O)CO.CNC[C@H](O)[C@@H](O)[C@H](O)[C@H](O)CO.O=C(CCCCC(=O)Nc1c(I)cc(I)c(C(=O)O)c1I)Nc1c(I)cc(I)c(C(=O)O)c1I [IODIPAMIDE MEGLUMINE]
DILI_severity_class [1]: 0 | DILI_Concern [2]: No-Dili-Concern

CNC(=O)c1c(I)c(NC(C)=O)c(I)c(C(=O)[O-])c1I.[Na+] [IOTHALAMATE SODIUM]
DILI_severity_class [1]: 0 | DILI_Concern [2]: No-Dili-Concern

O=C(NCC(O)CO)c1c(I)c(C(=O)NCC(O)CO)c(I)c(N(CCO)C(=O)CO)c1I (centres undefined) [IOVERSOL]
DILI_severity_class [1]: 0 | DILI_Concern [2]: No-Dili-Concern

CC(C)NNC(=O)c1ccncc1 [IPRONIAZID]
DILI_severity_class [1]: 8 | DILI_Concern [2]: Most-Dili-Concern

CCCCC1=NC2(CCCC2)C(=O)N1Cc1ccc(-c2ccccc2-c2nnn[nH]2)cc1 [IRBESARTAN]
DILI_severity_class [1]: 5 | DILI_Concern [2]: Less-Dili-Concern

CCc1c2c(nc3ccc(OC(=O)N4CCC(N5CCCCC5)CC4)cc13)-c1cc3c(c(=O)n1C2)COC(=O)[C@]3(O)CC [IRINOTECAN]
DILI_severity_class [1]: 3 | DILI_Concern [2]: Less-Dili-Concern

CC(C)Nc1ncccn1 [ISAXONINE]
DILI_severity_class [1]: 8 | DILI_Concern [2]: Most-Dili-Concern

Cc1cc(C(=O)NNCc2ccccc2)no1 [ISOCARBOXAZID]
DILI_severity_class [1]: 5 | DILI_Concern [2]: Ambiguous-Dili-Concern

NNC(=O)c1ccncc1 [ISONIAZID]
DILI_severity_class [1]: 8 | DILI_Concern [2]: Most-Dili-Concern

CC(C)NCC(O)c1ccc(O)c(O)c1 (centres undefined) [ISOPROTERENOL]
DILI_severity_class [1]: 0 | DILI_Concern [2]: No-Dili-Concern

O=[N+]([O-])O[C@H]1CO[C@H]2[C@@H]1OC[C@H]2O[N+](=O)[O-] [ISOSORBIDE DINITRATE]
DILI_severity_class [1]: 0 | DILI_Concern [2]: No-Dili-Concern

CC1=C(/C=C/C(C)=C/C=C/C(C)=C\C(=O)O)C(C)(C)CCC1 [ISOTRETINOIN]
DILI_severity_class [1]: 5 | DILI_Concern [2]: Most-Dili-Concern
